According to ChEMBL document CHEMBL4507258 (2021):

Columns and labels:
[1] = target: Muscarinic acetylcholine receptor M1 (Homo sapiens) (UniProt P11229); conditions: Compound concentration 10.0 uM
[2] = target: 5-hydroxytryptamine receptor 6 (Homo sapiens) (UniProt P50406); conditions: Compound concentration 10.0 uM
[3] = target: Alpha-2B adrenergic receptor (Homo sapiens, UniProt P18089); assay: GPCRScan assay: inhibition of Alpha2B; set-up: radioligand conc. used [nm] 1.5 – 2.0, parental cells HEKT
Sequence of Alpha-2B adrenergic receptor (P18089 whole entry): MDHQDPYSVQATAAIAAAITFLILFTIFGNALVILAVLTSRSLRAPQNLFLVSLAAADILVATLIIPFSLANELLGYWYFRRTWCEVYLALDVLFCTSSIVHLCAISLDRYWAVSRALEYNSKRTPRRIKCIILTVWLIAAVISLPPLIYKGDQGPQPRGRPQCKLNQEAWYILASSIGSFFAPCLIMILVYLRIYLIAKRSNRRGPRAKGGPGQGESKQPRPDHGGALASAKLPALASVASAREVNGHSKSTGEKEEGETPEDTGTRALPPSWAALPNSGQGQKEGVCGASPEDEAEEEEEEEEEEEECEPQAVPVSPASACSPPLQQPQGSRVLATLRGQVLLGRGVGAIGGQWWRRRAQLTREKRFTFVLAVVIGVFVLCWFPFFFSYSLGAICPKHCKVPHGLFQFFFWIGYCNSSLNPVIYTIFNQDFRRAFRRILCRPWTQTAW

[4] = target: Sigma non-opioid intracellular receptor 1 (Homo sapiens, UniProt Q99720); assay: sigma-Receptor (non-selective) CEREP ligand profiling; conditions: Compound concentration 10.0 uM
Sequence of Sigma non-opioid intracellular receptor 1 (Q99720 whole entry): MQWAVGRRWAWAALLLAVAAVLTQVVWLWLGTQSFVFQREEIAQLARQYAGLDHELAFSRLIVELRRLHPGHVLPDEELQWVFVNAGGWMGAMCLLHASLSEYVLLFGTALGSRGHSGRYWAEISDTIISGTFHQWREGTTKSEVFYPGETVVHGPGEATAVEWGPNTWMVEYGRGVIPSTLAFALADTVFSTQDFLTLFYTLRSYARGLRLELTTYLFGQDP

[5] = target: Cannabinoid receptor 1 (Homo sapiens) (UniProt P21554); assay: Cannabinoid CB1 receptor (h) CEREP ligand profiling; conditions: Compound concentration 10.0 uM
[6] = target: 5-hydroxytryptamine receptor 5A (Homo sapiens) (UniProt P47898); assay: 5-Hydroxytryptamine5A (h) CEREP ligand profiling; conditions: Compound concentration 10.0 uM
Sequence of 5-hydroxytryptamine receptor 5A (Homo sapiens) (P47898 whole entry): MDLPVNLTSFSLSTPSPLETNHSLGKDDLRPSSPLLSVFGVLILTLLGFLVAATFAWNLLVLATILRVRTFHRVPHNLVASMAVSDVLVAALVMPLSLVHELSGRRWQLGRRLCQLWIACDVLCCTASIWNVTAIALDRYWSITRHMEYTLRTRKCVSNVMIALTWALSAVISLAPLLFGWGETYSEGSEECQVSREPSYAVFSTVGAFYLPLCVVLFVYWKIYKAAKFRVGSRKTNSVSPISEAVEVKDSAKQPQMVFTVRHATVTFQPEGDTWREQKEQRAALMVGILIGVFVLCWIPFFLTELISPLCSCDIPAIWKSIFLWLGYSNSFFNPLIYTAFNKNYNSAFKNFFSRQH

[7] = target: Sodium-dependent dopamine transporter (Homo sapiens) (UniProt Q01959); assay: Dopamine uptake (h) CEREP ligand profiling; conditions: Compound concentration 10.0 uM
Sequence of Sodium-dependent dopamine transporter (Homo sapiens) (Q01959 whole entry): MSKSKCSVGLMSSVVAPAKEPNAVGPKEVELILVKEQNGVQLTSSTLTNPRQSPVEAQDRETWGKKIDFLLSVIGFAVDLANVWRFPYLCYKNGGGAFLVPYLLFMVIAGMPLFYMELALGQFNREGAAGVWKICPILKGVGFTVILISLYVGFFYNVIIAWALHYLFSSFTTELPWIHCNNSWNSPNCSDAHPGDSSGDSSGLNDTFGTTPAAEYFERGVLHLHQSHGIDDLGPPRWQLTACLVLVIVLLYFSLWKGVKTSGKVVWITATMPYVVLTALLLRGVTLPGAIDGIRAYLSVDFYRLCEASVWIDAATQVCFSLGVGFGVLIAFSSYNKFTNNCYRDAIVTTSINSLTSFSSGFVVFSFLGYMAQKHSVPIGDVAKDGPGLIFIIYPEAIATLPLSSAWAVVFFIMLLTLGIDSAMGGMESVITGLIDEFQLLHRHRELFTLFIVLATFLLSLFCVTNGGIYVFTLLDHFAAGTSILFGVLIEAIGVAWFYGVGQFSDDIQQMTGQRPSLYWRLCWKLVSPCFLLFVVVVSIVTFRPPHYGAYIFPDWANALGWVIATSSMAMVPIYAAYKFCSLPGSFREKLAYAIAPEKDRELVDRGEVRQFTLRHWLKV

[8] = target: Bombesin receptor (Homo sapiens) (UniProt P28336+P32247+P30550); assay: Bombesin receptor CEREP ligand profiling; format: protein assay; conditions: Compound concentration 10.0 uM
[9] = target: Thromboxane A2 receptor (Homo sapiens) (UniProt P21731); assay: Thromboxane A2/ prostaglandin H2 receptors CEREP ligand profiling; conditions: Compound concentration 10.0 uM
Sequence of Thromboxane A2 receptor (Homo sapiens) (P21731 whole entry): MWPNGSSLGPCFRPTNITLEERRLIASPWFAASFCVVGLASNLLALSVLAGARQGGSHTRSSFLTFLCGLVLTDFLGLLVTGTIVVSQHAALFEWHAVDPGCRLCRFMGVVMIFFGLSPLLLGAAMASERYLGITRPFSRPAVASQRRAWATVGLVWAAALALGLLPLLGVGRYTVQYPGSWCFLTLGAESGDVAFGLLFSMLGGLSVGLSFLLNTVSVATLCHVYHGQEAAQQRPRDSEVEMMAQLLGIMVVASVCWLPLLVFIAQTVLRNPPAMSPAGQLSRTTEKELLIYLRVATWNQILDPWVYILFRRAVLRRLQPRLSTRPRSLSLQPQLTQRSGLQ

[10] = target: Muscarinic acetylcholine receptor M5 (Homo sapiens) (UniProt P08912); assay: Muscarinic M5 receptors (h) CEREP ligand profiling; conditions: Compound concentration 10.0 uM
Sequence of Muscarinic acetylcholine receptor M5 (Homo sapiens) (P08912 whole entry): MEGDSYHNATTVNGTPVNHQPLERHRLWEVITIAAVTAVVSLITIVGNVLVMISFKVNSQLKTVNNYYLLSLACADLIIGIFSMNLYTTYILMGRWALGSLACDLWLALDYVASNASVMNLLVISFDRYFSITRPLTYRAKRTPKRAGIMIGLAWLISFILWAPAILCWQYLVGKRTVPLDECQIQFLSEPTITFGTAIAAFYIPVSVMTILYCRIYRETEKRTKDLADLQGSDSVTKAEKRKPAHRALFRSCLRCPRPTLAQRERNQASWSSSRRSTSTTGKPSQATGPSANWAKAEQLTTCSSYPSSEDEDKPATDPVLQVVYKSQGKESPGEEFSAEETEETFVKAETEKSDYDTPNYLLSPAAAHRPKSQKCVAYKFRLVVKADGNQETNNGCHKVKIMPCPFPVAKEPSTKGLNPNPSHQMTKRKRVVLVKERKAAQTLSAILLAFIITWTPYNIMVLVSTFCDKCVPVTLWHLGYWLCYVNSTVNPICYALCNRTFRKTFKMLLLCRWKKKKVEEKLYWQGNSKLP

[11] = target: Somatostatin receptor (Homo sapiens) (UniProt P35346+P30874+P31391+P30872+P32745); assay: Somatostatin receptor CEREP ligand profiling; format: protein assay; conditions: Compound concentration 10.0 uM
[12] = target: Type-2 angiotensin II receptor (Homo sapiens) (UniProt P50052); assay: Angiotensin AT2 receptor (h) CEREP ligand profiling; conditions: Compound concentration 10.0 uM
[13] = target: Gastrin/cholecystokinin type B receptor (Homo sapiens) (UniProt P32239); assay: CholecystokininB receptor (h) CEREP ligand profiling; conditions: Compound concentration 10.0 uM
Sequence of Gastrin/cholecystokinin type B receptor (Homo sapiens) (P32239 whole entry): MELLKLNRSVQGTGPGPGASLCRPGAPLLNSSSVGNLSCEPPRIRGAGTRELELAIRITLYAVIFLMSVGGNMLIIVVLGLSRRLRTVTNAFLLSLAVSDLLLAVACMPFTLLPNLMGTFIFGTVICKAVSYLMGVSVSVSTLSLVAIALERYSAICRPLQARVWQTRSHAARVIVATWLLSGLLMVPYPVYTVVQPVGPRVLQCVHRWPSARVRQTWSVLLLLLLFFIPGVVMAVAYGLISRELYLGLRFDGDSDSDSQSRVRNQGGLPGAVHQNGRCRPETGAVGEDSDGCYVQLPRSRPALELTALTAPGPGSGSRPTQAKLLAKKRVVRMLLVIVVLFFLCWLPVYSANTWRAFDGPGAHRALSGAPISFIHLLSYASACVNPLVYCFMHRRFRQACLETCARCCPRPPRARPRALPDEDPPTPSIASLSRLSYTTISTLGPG

[14] = target: 5-hydroxytryptamine receptor 2C (Homo sapiens) (UniProt P28335); assay: 5-Hydroxytryptamine2C (h) CEREP ligand profiling; conditions: Compound concentration 10.0 uM
[15] = target: Serine/threonine-protein kinase DCLK1 (Homo sapiens, UniProt O15075); assay: Inhibition of DCLK1 at compound concentration of 10.0 uM using the ScanMax (DiscoverX)
[16] = target: Vasoactive intestinal peptide receptor (Homo sapiens) (UniProt P41587+P32241+P41586); assay: Vasoactive intestinal peptide receptor CEREP ligand profiling; format: protein assay; conditions: Compound concentration 10.0 uM
[17] = target: Serine/threonine-protein kinase SIK1 (Homo sapiens, UniProt P57059); assay: Inhibition of SIK1 at compound concentration of 10.0 uM using the ScanMax (DiscoverX)
Sequence of Serine/threonine-protein kinase SIK1 (P57059 whole entry): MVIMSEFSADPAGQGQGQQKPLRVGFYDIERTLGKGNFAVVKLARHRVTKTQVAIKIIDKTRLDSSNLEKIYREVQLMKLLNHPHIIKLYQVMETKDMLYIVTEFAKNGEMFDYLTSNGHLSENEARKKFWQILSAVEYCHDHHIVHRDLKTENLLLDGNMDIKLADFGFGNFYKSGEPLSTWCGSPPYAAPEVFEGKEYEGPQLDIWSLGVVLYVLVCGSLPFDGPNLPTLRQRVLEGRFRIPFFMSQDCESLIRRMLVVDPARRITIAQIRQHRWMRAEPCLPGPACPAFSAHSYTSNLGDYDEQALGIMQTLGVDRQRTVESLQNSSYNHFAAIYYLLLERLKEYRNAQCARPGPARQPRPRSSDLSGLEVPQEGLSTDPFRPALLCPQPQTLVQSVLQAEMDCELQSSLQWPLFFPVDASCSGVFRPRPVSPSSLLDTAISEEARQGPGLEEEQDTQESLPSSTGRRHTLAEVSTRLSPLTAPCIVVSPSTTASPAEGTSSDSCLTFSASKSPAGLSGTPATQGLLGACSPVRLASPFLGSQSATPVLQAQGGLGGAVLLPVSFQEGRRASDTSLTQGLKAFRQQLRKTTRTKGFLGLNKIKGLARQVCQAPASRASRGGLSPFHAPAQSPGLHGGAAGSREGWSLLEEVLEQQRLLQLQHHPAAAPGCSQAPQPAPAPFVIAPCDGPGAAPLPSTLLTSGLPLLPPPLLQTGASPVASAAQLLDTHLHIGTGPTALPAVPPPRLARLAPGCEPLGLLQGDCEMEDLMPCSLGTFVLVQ

[18] = target: T1, 5-hydroxytryptamine receptor 3A (Homo sapiens) (UniProt P46098); assay: 5-Hydroxytryptamine3 CEREP ligand profiling; conditions: Compound concentration 10.0 uM
T1 sequence (whole entry): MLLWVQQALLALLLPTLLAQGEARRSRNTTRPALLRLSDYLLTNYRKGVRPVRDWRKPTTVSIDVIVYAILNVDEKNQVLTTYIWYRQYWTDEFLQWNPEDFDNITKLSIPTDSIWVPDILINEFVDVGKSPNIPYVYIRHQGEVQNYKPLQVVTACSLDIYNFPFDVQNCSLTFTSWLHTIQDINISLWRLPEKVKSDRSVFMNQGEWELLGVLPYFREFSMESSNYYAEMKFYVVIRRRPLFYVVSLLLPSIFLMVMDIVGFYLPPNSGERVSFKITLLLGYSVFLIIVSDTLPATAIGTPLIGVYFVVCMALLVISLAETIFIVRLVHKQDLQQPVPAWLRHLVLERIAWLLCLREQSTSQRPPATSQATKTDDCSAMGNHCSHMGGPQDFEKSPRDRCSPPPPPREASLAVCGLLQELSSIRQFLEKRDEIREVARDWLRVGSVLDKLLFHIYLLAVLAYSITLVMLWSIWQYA

Sequence of 5-hydroxytryptamine receptor 6 (Homo sapiens) (P50406 whole entry): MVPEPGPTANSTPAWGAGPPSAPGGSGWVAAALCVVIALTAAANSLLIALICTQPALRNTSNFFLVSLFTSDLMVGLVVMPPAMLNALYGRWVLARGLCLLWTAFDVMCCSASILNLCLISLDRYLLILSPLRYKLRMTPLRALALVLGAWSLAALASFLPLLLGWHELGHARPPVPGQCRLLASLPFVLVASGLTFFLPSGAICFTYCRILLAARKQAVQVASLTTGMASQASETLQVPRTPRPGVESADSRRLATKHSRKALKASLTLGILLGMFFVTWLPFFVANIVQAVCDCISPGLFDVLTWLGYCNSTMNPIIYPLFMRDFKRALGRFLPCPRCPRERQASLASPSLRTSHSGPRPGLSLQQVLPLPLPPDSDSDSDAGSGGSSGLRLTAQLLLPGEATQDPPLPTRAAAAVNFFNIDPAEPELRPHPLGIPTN
Sequence of Muscarinic acetylcholine receptor M1 (Homo sapiens) (P11229 whole entry): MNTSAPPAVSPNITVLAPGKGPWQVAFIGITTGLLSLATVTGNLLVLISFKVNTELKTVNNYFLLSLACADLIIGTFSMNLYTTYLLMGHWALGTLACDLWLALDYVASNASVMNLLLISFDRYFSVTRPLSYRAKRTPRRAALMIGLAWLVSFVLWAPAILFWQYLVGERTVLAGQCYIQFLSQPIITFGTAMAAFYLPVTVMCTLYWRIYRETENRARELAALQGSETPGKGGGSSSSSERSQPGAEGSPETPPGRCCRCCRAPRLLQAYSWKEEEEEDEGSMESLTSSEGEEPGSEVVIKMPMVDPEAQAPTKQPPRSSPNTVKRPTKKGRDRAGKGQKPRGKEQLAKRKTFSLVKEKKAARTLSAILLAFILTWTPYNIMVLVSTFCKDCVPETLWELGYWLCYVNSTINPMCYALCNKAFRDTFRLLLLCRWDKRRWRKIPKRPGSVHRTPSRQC

Structure (SMILES) | inhibition [1] | inhibition [2] | Ki ([3]; read-out: Ki) | Ki ([3]; read-out: pKi (converted)) | inhibition [4] | inhibition [5] | inhibition [6] | inhibition [7] | inhibition [8] | inhibition [9] | inhibition [10] | inhibition [11] | inhibition [12] | inhibition [13] | inhibition [14] | Kd [15] | inhibition [16] | Kd [17] | inhibition [18]
CCCCN(CCCC)C(=O)CN1C[C@@H](c2cc(OC)c3c(c2)OCO3)[C@H](C(=O)O)[C@H]1CC(C)(C)CCC [A-545] | 12.4% | 33.5% | 4.64 µM | 4.17 µM | – | – | – | – | – | – | – | – | – | – | – | – | – | – | –
CCCCN(CCCC)C(=O)CN1C[C@H](c2cc(OC)c3c(c2)OCO3)[C@@H](C(=O)O)[C@@H]1CC(C)(C)CCC [ABT-546] | – | – | – | – | < 10% | < 10% | < 10% | < 10% | < 10% | 16% | < 10% | < 10% | < 10% | < 10% | < 10% | > 10 µM (not active) | < 10% | > 10 µM (not active) | < 10%
